The numbers were not newly measured in US7732404B2 (priority 1999, dated 2010), which cites them from elsewhere.

The data set has as its system mice. Particulars: mouse, in vivo, po.

With `CCOC(=O)C(C)O` (stereo not shown) [Ethyl lactate, 2-hydroxypropanoic acid ethyl ester], the LD50 result is reported as “higher than 5 g/kg”.
